The results in this text go back to ChEMBL document CHEMBL1151994, “Plant seeds as sources of potential industrial chemicals, pharmaceuticals, and pest control agents” (2009).

≈ marks a conversion by molar mass, not a printed value.

What all share (assay type): functional
Test [1] deals with P388. The test can be described thus: In vivo antitumor activity against mouse P388 cells at 0.25 to 1 mg/kg relative to control. To be noted: dose mg/kg 0.25-1.
A further test concerns L1210. The test can be described thus: In vivo antitumor activity against mouse L1210 cells at 0.25 to 1 mg/kg relative to control. To be noted: dose mg/kg 0.25-1.
Test [2] concerns PS. The test can be described thus: In vivo antitumor activity against […] PS cells at 8 to 23 ug/kg relative to control.
The subject of a further test is KB. The test can be described thus: Cytotoxicity against human KB cells. As to conditions: for EC50: Homo sapiens, KB, read-out: ED50 (the source's name).
In test [3] the test system is P388. The test can be described thus: In vivo antitumor activity against mouse P388 cells at 1 to 3.3 mg/kg relative to control. To be noted: dose mg/kg 1-3.3.
The nature of test [4]: In vivo antitumor activity against human B1 cells at 4 to 32 ug/kg relative to control.
Test [5] relates to PS. The test can be described thus: In vivo antitumor activity against […] PS cells at 1 to 31 ug/kg relative to control.
The test system of a further test is Ostrinia nubilalis. The test can be described thus: Insecticidal activity against Ostrinia nubilalis. As to conditions: read-out: LD50 (the source's name).

A word on the T/C: it is the ratio of treated to control. Consider `COC(=O)C[C@](O)(CCCC(C)(C)O)C(=O)O[C@@H]1C(OC)=C[C@]23CCCN2CCc2cc4c(cc2[C@H]13)OCO4` [OMACETAXINE MEPESUCCINATE], for which the values for the T/C in the test with P388 [1] and with L1210 were 244% and 123%, respectively.

On to `C=C1CO[C@](O)(C2OCOC(C3CC(=O)NC(=O)C3)[C@@H]2O)[C@H]1C` (stereo partly specified) [SESBANIMIDE A], for which, in the test on PS [2], the T/C was 140%. Also, the EC50 in the test on KB was determined as 0.0077 µg/mL (≈ 0.0235 µM).

In the test on P388 [3], `C/C=C(\C)C(=O)N[C@@H](c1ccccc1)[C@@H](O)C(=O)O[C@H]1C[C@@]2(O)[C@@H](OC(=O)c3ccccc3)[C@@H]3[C@]4(OC(C)=O)CO[C@@H]4C[C@H](O)[C@@]3(C)C(=O)[C@H](OC(C)=O)C(=C1C)C2(C)C` [CEPHALOMANNINE] registered a T/C of 158%. Moreover, the EC50 with KB is 0.0038 µg/mL (≈ 0.00457 µM).

Turning to `COc1cc2cc(c1Cl)N(C)C(=O)C[C@H](OC(=O)[C@H](C)N(C)C(=O)C(C)C)[C@]1(C)O[C@H]1[C@H](C)[C@@H]1C[C@@](O)(NC(=O)O1)[C@H](OC)/C=C/C=C(\C)C2OC` (stereo partly specified) [TREWIASINE], the T/C is recorded as 165% in test [4] and 126% in the test on PS [5]. Besides, the ED50 in the test on KB came to 2 ×10⁻⁴ ug/ml.

With `CO[C@H]1[C@H](O)[C@H](O[C@H]2CC[C@@]3(C)[C@H](CC[C@@H]4[C@@H]3CC[C@]3(C)[C@@H](C5=CC(=O)OC5)CC[C@]43O)C2)O[C@@H](C)[C@@H]1O` [NERIIFOLIN], the LC50 in the test with Ostrinia nubilalis came to 30 µg/mL (≈ 56.1 µM).

As for `CO[C@@H]1[C@@H](O)[C@H](C)O[C@@H](O[C@H]2CC[C@@]3(C)[C@H](CC[C@@H]4[C@@H]3CC[C@]3(C)[C@@H](C5=CC(=O)OC5)CC[C@]43O)C2)[C@H]1OC(C)=O`, the LC50 in the test on Ostrinia nubilalis turned out to be 192 µg/mL (≈ 333 µM).
